# Reference: US20140371070A1, “PLANT GROWTH REGULATING COMPOUNDS” (Syngenta Participations AG, priority 2011, published 2014)
row,melting point,SMILES
1,118 to 119 °C,O=C(CCC(=O)OCCCC(F)(F)F)Nc1ccc(Br)cn1
2,97 to 98 °C,"CC1(CCOC(=O)CCC(=O)Nc2ccc(Br)cn2)OCCO1 [Compound A43, 2-(2-methyl-1,3-dioxolan-2-yl)ethyl 4-[(5-bromo-2-pyridyl)amino]-4-oxo-butanoate]"
